# Results as given in US20070203183A1, “Diaryl piperidines as CB1 modulators” (Schering Corporation, priority 2006, published 2007).
# Like-named read-outs stand apart in the source and are kept apart here.
# Molecular target: T1, cannabinoid CB1 (Homo sapiens, UniProt P21554)
# T1 construct: purchased
# Test: Competition binding assay for cannabinoid CB1 affinity (3H-CP55,940 displacement, membranes)
# Protocol: Method for Evaluating Cannabinoid CB1 and CB2 Affinity
# Non-specific binding was defined in the presence of 10 μM CP55,940. For saturation studies, concentrations of ^3H-CP55,940 ranging from 0.1-5 nM were incubated with membranes in the presence and absence of 10 μM CP55,940. Assays were terminated after incubation for 1½ hours by rapid filtration onto 0.3% polyethylenamine treated GF/C filterplates using a BRANDEL cell harvester. The plates were dried and MICROSCINT scintillation cocktail was added, after which the bound radioactivity was quantified using a TOPCOUNT scintillation counter.
# The dissociation constant (Kd) of ^3H-CP55,940 at the CB1 and CB2 receptor were determined by plotting specific binding at each concentration of radioligand, and analysis by non-linear regression. For competition studies, the concentration of each drug that inhibited 50 percent of ^3H-CP55,940 binding (IC50) was determined by non-linear regression analysis of the radioligand displacement curves.
# [1] = competition with 0.5 nM 3H-CP55,940, Ki by Cheng-Prusoff, approximate values, receptor subtype not given, read-out: Ki values
# T1 sequence (P21554 whole entry): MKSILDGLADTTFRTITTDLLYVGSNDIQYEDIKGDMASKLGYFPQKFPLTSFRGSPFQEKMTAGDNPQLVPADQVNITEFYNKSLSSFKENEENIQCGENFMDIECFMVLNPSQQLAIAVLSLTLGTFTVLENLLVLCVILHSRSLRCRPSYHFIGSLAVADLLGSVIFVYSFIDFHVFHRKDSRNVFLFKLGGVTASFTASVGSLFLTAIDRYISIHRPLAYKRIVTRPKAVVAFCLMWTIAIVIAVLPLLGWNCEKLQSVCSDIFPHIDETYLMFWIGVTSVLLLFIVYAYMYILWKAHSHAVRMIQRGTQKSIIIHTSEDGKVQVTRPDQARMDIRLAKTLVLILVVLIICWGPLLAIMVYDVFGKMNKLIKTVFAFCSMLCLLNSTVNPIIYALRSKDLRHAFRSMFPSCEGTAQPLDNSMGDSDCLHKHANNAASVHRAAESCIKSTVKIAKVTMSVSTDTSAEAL
Ki [1],Compound,Ki
–,N#Cc1ccc(C(=O)NC[C@@H]2CC[C@@H](c3ccc(Cl)cc3Cl)N(c3ccc(Cl)cc3)C2)cc1 [Example 91],~4 nM
~9 nM,O=S(=O)(NC[C@@H]1CC[C@@H](c2ccc(Cl)cc2Cl)N(c2ccc(Cl)cc2)C1)c1ccccc1 [Example 86],–
~2 nM,O=S(=O)(NC[C@@H]1CC[C@@H](c2ccc(Cl)cc2Cl)N(c2ccc(Cl)cc2)C1)c1cc(F)ccc1F [Example 112],–
~2 nM,O=S(=O)(NC[C@@H]1CC[C@@H](c2ccc(Cl)cc2Cl)N(c2ccc(Cl)cc2)C1)c1cccc(Cl)c1 [Example 120],–
